In US20240383915A1, “OXAZEPINE COMPOUNDS AND USES THEREOF IN THE TREATMENT OF CANCER” (Genentech, Inc., priority 2021, published 2024) one finds IC50 data, which are given here for ten compounds.

The structures appear in SMILES notation.

The target of assay [1] is KRas(G12V) (Homo sapiens (Human), UniProt P01116, G12V). Description: KRas(G12V) GDP HTRF (BODIPY-GDP exchange TR-FRET). The format is biochemical. For orientation: In TR-FRET formats the signal depends on donor and acceptor labels being close together.
Assay [2] addresses KRas (Homo sapiens (Human), UniProt P01116). Description: KRas GDP HTRF (BODIPY-GDP exchange TR-FRET). The format is biochemical. The gist of the method: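 Inhibition of SOS1-mediated exchange of BODIPY-GDP on KRAS G12D, started with 3 nM recombinant human SOS1 and 300 nM BODIPY-GDP and read after 60 min. TR-FRET excitation 337 nm, ratio 520/490 nm ×10,000. IC50 from 4-parameter Hill fit of normalized data.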

Sequence of KRas(G12V) (P01116-2 other isoform, or with tags, fused parts or gaps G12V): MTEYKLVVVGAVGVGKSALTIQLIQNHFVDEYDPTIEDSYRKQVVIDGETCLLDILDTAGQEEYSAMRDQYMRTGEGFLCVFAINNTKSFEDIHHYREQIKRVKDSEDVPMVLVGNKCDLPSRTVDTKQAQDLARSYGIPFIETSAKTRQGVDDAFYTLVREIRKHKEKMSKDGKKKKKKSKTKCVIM
Sequence of KRas (P01116-2 other isoform, or with tags, fused parts or gaps): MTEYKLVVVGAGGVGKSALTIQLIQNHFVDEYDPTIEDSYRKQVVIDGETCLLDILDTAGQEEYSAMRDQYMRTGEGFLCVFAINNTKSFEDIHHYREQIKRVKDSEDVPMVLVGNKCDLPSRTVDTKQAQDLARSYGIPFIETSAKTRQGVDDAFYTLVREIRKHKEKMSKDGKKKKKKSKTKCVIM

For the compound `Cc1cc(N)nc(-c2cc3ncnc4c3c(c2Cl)OCCN4C2CCc3ccncc32)c1C(F)(F)F` (centres unmarked) [Example 21, 6-(8-chloro-4-(6,7-dihydro-5H-cyclopenta[c]pyridin-7-yl)-5,6-dihydro-4H-[1,4]oxazepino[5,6,7-de]quinazolin-9-yl)-4-methyl-5-(trifluoromethyl)pyridin-2-amine], the half-inhibitory concentration (IC50) in assay [1] came to 1.6 µM; in assay [2], 3.4 µM.

Take `Cc1cc(N)nc(-c2cc3ncnc4c3c(c2Cl)OCCN4Cc2ccns2)c1C(F)(F)F` [Example 22, 6-(8-chloro-4-(isothiazol-5-ylmethyl)-5,6-dihydro-4H-[1,4]oxazepino[5,6,7-de]quinazolin-9-yl)-4-methyl-5-(trifluoromethyl)pyridin-2-amine]: the results for the half-maximal inhibitory concentration (IC50) in assay [1] and in assay [2] were 11 µM and 43 µM, respectively.

In the case of `Cc1cc(N)nc(-c2cc3ncnc4c3c(c2Cl)OCCN4Cc2scnc2N)c1C(F)(F)F` [Example 25, 5-((9-(6-amino-4-methyl-3-(trifluoromethyl)pyridin-2-yl)-8-chloro-5,6-dihydro-4H-[1,4]oxazepino[5,6,7-de]quinazolin-4-yl)methyl)thiazol-4-amine], the IC50 in assay [1] was determined as 0.51 µM; in assay [2], 2 µM.

`Cc1cc(N)nc(-c2cc3ncnc4c3c(c2Cl)OCCN4C(C)(C)c2cccnc2N)c1C(F)(F)F` [Example 27, 6-(4-(2-(2-aminopyridin-3-yl)propan-2-yl)-8-chloro-5,6-dihydro-4H-[1,4]oxazepino[5,6,7-de]quinazolin-9-yl)-4-methyl-5-(trifluoromethyl)pyridin-2-amine]: the values for the 50% inhibitory concentration (IC50) in assay [1] and in assay [2] were 0.58 µM and 1.4 µM, respectively.

`CSc1cncc(CN2CCOc3c(Cl)c(-c4nc(N)cc(C)c4C(F)(F)F)cc4ncnc2c34)c1` [Example 29, 6-(8-chloro-4-((5-(methylthio)pyridin-3-yl)methyl)-5,6-dihydro-4H-[1,4]oxazepino[5,6,7-de]quinazolin-9-yl)-4-methyl-5-(trifluoromethyl)pyridin-2-amine]: the IC50 in assay [1] and in assay [2] was 7.4 µM each time.

As for `Cc1cc(N)nc(-c2cc3ncnc4c3c(c2Cl)OCCN4Cc2cnc[nH]2)c1C(F)(F)F` [Example 30, 6-(4-((1H-imidazol-5-yl)methyl)-8-chloro-5,6-dihydro-4H-[1,4]oxazepino[5,6,7-de]quinazolin-9-yl)-4-methyl-5-(trifluoromethyl)pyridin-2-amine], the concentration for half-maximal inhibition (IC50) in assay [1] is 4.7 µM; in assay [2] it was 35 µM.

`Cc1cc(N)nc(-c2cc3ncnc4c3c(c2Cl)OCCN4Cc2cc(F)cnc2N)c1C(F)(F)F` [Example 31, 6-(4-((2-amino-5-fluoropyridin-3-yl)methyl)-8-chloro-5,6-dihydro-4H-[1,4]oxazepino[5,6,7-de]quinazolin-9-yl)-4-methyl-5-(trifluoromethyl)pyridin-2-amine]: the IC50 in assay [1] was found to be 0.44 µM; in assay [2], 2.8 µM.

For `Cc1cc(N)nc(-c2cc3ncnc4c3c(c2Cl)OCCN4C2CCc3c(N)cncc32)c1C(F)(F)F` (centres unmarked) [Example 37, 7-(9-(6-amino-4-methyl-3-(trifluoromethyl)pyridin-2-yl)-8-chloro-5,6-dihydro-4H-[1,4]oxazepino[5,6,7-de]quinazolin-4-yl)-6,7-dihydro-5H-cyclopenta[c]pyridin-4-amine], the IC50 in assay [1] was determined as 0.053 µM; in assay [2], 0.27 µM.

Regarding `Cc1cc(N)nc(-c2cc3ncnc4c3c(c2Cl)OC[C@H](CC#N)N4C)c1C(F)(F)F` [Example 43, (S)-2-(9-(6-amino-4-methyl-3-(trifluoromethyl)pyridin-2-yl)-8-chloro-4-methyl-5,6-dihydro-4H-[1,4]oxazepino[5,6,7-de]quinazolin-5-yl)acetonitrile], the IC50 stood at 2 µM in assay [1] and 4.9 µM in assay [2].

On to `Cc1cc(N)nc(-c2cc3ncnc4c3c(c2Cl)OCCN4Cc2cccnc2)c1C(F)(F)F` [Example 46, 6-(8-chloro-4-(pyridin-3-ylmethyl)-5,6-dihydro-4H-[1,4]oxazepino[5,6,7-de]quinazolin-9-yl)-4-methyl-5-(trifluoromethyl)pyridin-2-amine], for which the IC50 in assay [1] stood at 11 µM; in assay [2] it was 46 µM.

A word on the IC50: it is the point on the concentration scale where inhibition reaches its midpoint.
